The text below walks through data of patent US20050124638A1, “Benzimidazoles and analogs thereof as antivirals” (priority 2003, published 2005).

In data set [1] the test system is HCV RNA levels in Ntat2ANeo replicon containing cell line. Description: Replicon assay (Ntat2ANeo replicon cells, quantitative RT-PCR of HCV RNA). In kind it is cell-based. The settings on record: Hepatitis C virus; Table 8. Background: A replicon is a self-replicating genome or part of one, used to study replication in cells.
For data set [2], the target named is HCV IRES stem IIa RNA target. Description: Mass spectrometry based binding assay. The conditions noted are these: for binding percentages of ligand to target: ligand 50 μM, IIa target 2.5 μM, Table 1.
Data set [3] can be described thus: MTT toxicity assay. It counts as cell-based. The source says: The color was quantified by spectrophotometric means. For each cell type a linear relationship between cell number and absorbance is established, enabling quantification of changes of proliferation.
[4] abbreviates: Table 8, read-out: Kd to IIa target.
Setting [5] is: constrained vs unconstrained N1/N2 side chains, read-out: KD.

Read-outs that look alike come from different tables or passages of the source.

In general, IC50 refers to the midpoint of a concentration-inhibition curve. Higher therefore signals weaker potency. As a reminder, the Kd is the constant that tells how readily two partners part at equilibrium. Usually CC50 stands for the concentration that lowers cell viability or growth by half. `CN(C)CCCn1c(N)nc2ccc3c(c21)CC(CN(C)C(=N)N)CO3` (stereo not drawn) [IBIS00560101]: in data set [1], the 50% inhibitory concentration (IC50) is greater than 100 µM. Moreover, in data set [2] (setting [4]), the dissociation constant (Kd) worked out at 5.5 µM. This compound registered a CC50 at 48 h in data set [3] greater than 100 µM.
Turning to `CN(C)CCCOc1ccc2nc(N)n(CCCN(C)C)c2c1` [drawing 125], the Kd in data set [2] (setting [5]) came to 3.6 µM.
For the compound `CN(C)CC1COc2ccc3nc4n(c3c2C1)CC(CN(C)C)CN4` (stereo not drawn) [IBIS00560146], 5.4 µM corresponded to half-maximal inhibition in data set [1] (IC50). Besides, the Kd in data set [2] (setting [4]) amounted to 21.1 µM. The compound further registered a 50% cytotoxic concentration (CC50) at 48 h in data set [3] greater than 100 µM.
For `Nc1nc2ccccc2n1CCCN1CCCC1`, the “binding percentages of ligand to target” value in data set [2] was found to be 15%.
Take `CN(C)CC1CNc2nc3ccc(OCCCN(C)Cc4nccs4)cc3n2C1` (stereo not drawn) [IBIS00554888]: the IC50 in data set [1] is greater than 100 µM. The Kd in data set [2] (setting [4]) turned out to be 8.8 µM. Also, in data set [3], the CC50 at 48 h was greater than 100 µM.
In turn, `CN(C)CC1CNc2nc3ccc(OCCCN(C)Cc4ccc[nH]4)cc3n2C1` (stereo not drawn) [IBIS00528636] had a half-maximal inhibitory concentration (IC50) in data set [1] of 27.2 µM. In data set [2] (setting [4]), the Kd amounted to 1.2 µM. The compound also came in with a 50% cytotoxic concentration (CC50) at 48 h in data set [3] of 90 µM.
The like results for `CNCC1COc2ccc3nc(N)n(CCCN(C)C)c3c2C1` (stereo not drawn) [IBIS00560100] were, in that order, 51.6 µM, 3.1 µM and greater than 100 µM.
For `CN(C)CCCn1c(N)nc2ccccc21` [drawing 67], the MS Target Selectivity result in data set [2] (Table 2) is on record as “˜3”. The dissociation constant Kd in data set [2] (Table 2, read-out: Est. KD) was roughly 100 µM.
The like results for `CN(C)CCCOc1ccc2nc(N)n(CCCN(C)C)c2c1` [drawing 69] were, in that order, “˜15” and roughly 10 µM.
Take `CN(C)CC1CNc2nc3ccc(OCCCN(C)Cc4ccccn4)cc3n2C1` (stereo not drawn) [IBIS00528637]: in data set [1], half-maximal inhibition (IC50) was put at 14.2 µM. The dissociation constant (Kd) in data set [2] (setting [4]) stood at 0.56 µM. In data set [3], this compound gave a CC50 at 48 h greater than 100 µM.
The like results for `CN(CCCOc1ccc2nc3n(c2c1)CC(CN1CCCCC1)CN3)Cc1ccco1` (stereo not drawn) [IBIS00554813] were, in that order, 18.2 µM, 5.1 µM and greater than 100 µM.
As for `CN(C)CCCn1c(N)nc2ccccc21` [drawing 71], the “MS Target Selectivity” value in data set [2] (Table 3) is given as “˜3”. Moreover, in data set [2] (Table 3, read-out: Est. KD), the Kd is roughly 100 µM.
The like results for `CN(C)CCCOc1ccc2ncn(CCCN(C)C)c2c1` were, in that order, 1 and greater than 500 µM.
For `CN(C)CC1CNc2nc3ccc(OCCCNC4CCN(Cc5ccccc5)CC4)cc3n2C1` (stereo not drawn) [IBIS00528633], in data set [1], the 50% inhibitory concentration (IC50) was 13.7 µM. Besides, the Kd in data set [2] (setting [4]) worked out at 4 µM. The CC50 at 48 h in data set [3] is greater than 100 µM.
In the same order, the values of `CN(C)CCCOc1ccc2nc3n(c2c1)CC(CN(C)C)CN3` (stereo not drawn) [IBIS00408169] are 28.7 µM, 4.5 µM and greater than 100 µM.
The compound `CN(C)CCCn1c(N)nc2ccc3c(c21)CC(CN(C)Cc1cccn1C)O3` (stereo not drawn) [IBIS00560102] registered a half-inhibitory concentration (IC50) in data set [1] of 3.3 µM. Also, the equilibrium dissociation constant (Kd) in data set [2] (setting [4]) worked out at 10.4 µM. This compound also returned a CC50 at 48 h in data set [3] greater than 100 µM.
The like results for `CN(C)CC1CNc2nc3ccc(OCCCN(C)Cc4cccc(Br)n4)cc3n2C1` (stereo not drawn) [IBIS00560002] were, in that order, 11.6 µM, 110 µM and greater than 100 µM.
Consider `CN(C)CCCOc1ccc2nc(N)[nH]c2c1`, for which the “MS Target Selectivity” value in data set [2] (Table 3) is “˜2”. For the same compound, the equilibrium dissociation constant (Kd) in data set [2] (Table 3, read-out: Est. KD) was greater than 500 µM.
In data set [1], `CN(C)CCCOc1ccc2nc3n(c2c1)CC(CN1CCCCC1)CN3` (stereo not drawn) [IBIS00554807] returned a concentration for half-maximal inhibition (IC50) of 14.1 µM. Further, the Kd in data set [2] (setting [4]) came out at 3.4 µM. Moreover, the CC50 at 48 h in data set [3] was greater than 100 µM.
On to `Nc1nc2ccccc2n1CCOc1ccccc1`, for which, in data set [2], the “binding percentages of ligand to target” value is 6%.
As to `CN(CCCOc1ccc2nc3n(c2c1)CC(CN1CCCCC1)CN3)Cc1ccccn1` (stereo not drawn) [IBIS00554811], half-maximal inhibition in data set [1] (IC50) was put at 24 µM. Besides, in data set [2] (setting [4]), the Kd was determined as 4.3 µM. This compound had a CC50 at 48 h in data set [3] greater than 100 µM.
For `CCN(CC)CCn1c(N)nc2ccccc21`, the “binding percentages of ligand to target” value in data set [2] stood at 15%.
As for `CN(C)CCCn1c(N)nc2ccc3c(c21)CC(CN(C)C)CO3` (stereo not drawn) [IBIS00560020], in data set [1], the IC50 amounted to 9 µM. In addition, the dissociation constant (Kd) in data set [2] (setting [4]) turned out to be 2.2 µM. The 50% cytotoxic concentration (CC50) at 48 h in data set [3] was greater than 100 µM.
The like results for `CN(C)CCCn1c(N)nc2ccc3c(c21)CC(CN(C)CCN(C)C)O3` (stereo not drawn) [IBIS00560048] were, in that order, 23 µM, 11 µM and greater than 100 µM.
The like results for `CN(C)CC1CNc2nc3ccc(OCCCN4CCC(N5CCCC5)CC4)cc3n2C1` (stereo not drawn) [IBIS00528634] were, in that order, 19.2 µM, 1.7 µM and greater than 100 µM.
On to `CN(C)CC1CNc2nc3ccc(OCCCN[C@@H]4CCN(Cc5ccccc5)C4)cc3n2C1` (stereo partly drawn) [IBIS00528635], for which the concentration for half-maximal inhibition (IC50) in data set [1] is 42.3 µM. Moreover, the Kd in data set [2] (setting [4]) was 1 µM. Moreover, in data set [3], the midpoint of cytotoxicity, the CC50 at 48 h, lay at 90 µM.
In the same order, the values of `CN(C)CCCn1c(N)nc2ccc3c(c21)CC(CN(C)Cc1cccn1C)CO3` (stereo not drawn) [IBIS00560031] are 21.7 µM, 18 µM and greater than 100 µM.
In data set [1], `CN(C)CCCOc1ccc2nc(N)n(CCCN(C)C)c2c1` [IBIS00403514] returned an IC50 of 37.1 µM. Besides, in data set [2] (setting [4]), the Kd was determined as 3.8 µM.
Turning to `CN(C)CCn1c(N)nc2ccccc21`, the “binding percentages of ligand to target” value in data set [2] is 11%.
For the compound `CN(C)CC1CNc2nc3ccc(OCCCN(C)Cc4ncc[nH]4)cc3n2C1` (stereo not drawn) [IBIS00554843], in data set [1], the 50% inhibitory concentration (IC50) is greater than 100 µM. Besides, the Kd in data set [2] (setting [4]) is 3.1 µM. The cytotoxic concentration (CC50) at 48 h in data set [3] was greater than 100 µM.
In turn, `CN(C)CCCn1c(N)nc2ccc3c(c21)CC(CCN)CO3` (stereo not drawn) [IBIS00560024] gave an IC50 in data set [1] greater than 100 µM. For the same compound, the equilibrium dissociation constant (Kd) in data set [2] (setting [4]) came out at 3.4 µM. Moreover, the 50% cytotoxic concentration (CC50) at 48 h in data set [3] was greater than 100 µM.
Consider `CN(C)CCCn1c(N)nc2ccccc21` [drawing 62], for which the “binding percentages of ligand to target” value in data set [2] is recorded as 56% binding.
For `COc1ccc2nc(N)n(CCCN(C)C)c2c1`, the MS Target Selectivity entry in data set [2] (Table 2) was “˜10”. Also, the Kd in data set [2] (Table 2, read-out: Est. KD) is roughly 40 µM.
In data set [1], `CN(C)CC1CNc2nc3ccc(OCCCN(C)Cc4cccn4C)cc3n2C1` (stereo not drawn) [IBIS00554842] returned an IC50 of 4 µM. In data set [2] (setting [4]), the equilibrium dissociation constant (Kd) amounted to 0.78 µM. Further, the CC50 at 48 h in data set [3] amounted to 50 µM.
In the same order, the values of `CN(C)CCCn1c(N)nc2ccc3c(c21)CC(CN)CO3` (stereo not drawn) [IBIS00560121] are 42.7 µM, 17.2 µM and greater than 100 µM.
The like results for `CN(C)CCCn1c(N)nc2ccc3c(c21)CC(CN(C)CCN(C)C)CO3` (stereo not drawn) [IBIS00560025] were, in that order, 71.2 µM, 9.4 µM and greater than 100 µM.
In the same order, the values of `CN(C)CCCn1c(N)nc2ccc3c(c21)CC(CN(C)Cc1ncc[nH]1)CO3` (stereo not drawn) [IBIS00560122] are greater than 100 µM, 19.6 µM and greater than 100 µM.
In the case of `CN(C)CCCOc1ccc2nc3n(c2c1)CC(CN(C)C)CN3` (stereo not drawn) [drawing 124], the dissociation constant Kd in data set [2] (setting [5]) stood at 0.67 µM.
Regarding `CN(C)CCCOc1ccc2nc(N)n(CCCN(C)C)c2c1` [drawing 70], in data set [2] (Table 3), the “MS Target Selectivity” value is recorded as “˜15”. Also, the equilibrium dissociation constant (Kd) in data set [2] (Table 3, read-out: Est. KD) is roughly 10 µM.
`CN(C)CCCn1c(N)nc2ccc3c(c21)CC(CN(C)C)O3` (stereo not drawn) [IBIS00560047] yielded a CC50 at 48 h in data set [3] greater than 100 µM.
In data set [1], `CN(C)CC1CNc2nc3ccc(OCCCN(C)Cc4ccc(CO)o4)cc3n2C1` (stereo not drawn) [IBIS00554889] yielded an IC50 of 57.9 µM. The Kd in data set [2] (setting [4]) is 5.9 µM. The CC50 at 48 h in data set [3] was greater than 100 µM.
In the same order, the values of `CN(C)CC1CNc2nc3ccc(OCCCN(C)Cc4ccco4)cc3n2C1` (stereo not drawn) [IBIS00554844] are 4.9 µM, 1.7 µM and greater than 100 µM.
